# In patent US7718846B2, “Animal models of long QT syndrome and uses thereof” (priority 2005, dated 2010):
# Key:
# IKs = details: experimental models in dogs; cited from earlier work
# IKr = details: E4031 0.5 μM; cited from earlier work
# WT rabbits = details: Carlsson rabbit model; cited from earlier work
# LQT2 = details: cited from earlier work
# [1] = tested on: rabbit left ventricular wedge preparation; details: 100 μM
# Description: Shown are floating microelectrode recordings from an M cell in the subendocardial region of the wedge preparation and an ECG recorded across the bath.
# Rabbits weighing 2.5 3.5 kg may be anticoagulated with heparin and anesthetized with pentobarbital (30-35 mg/kg, i.v.). Transmural wedges with dimensions of approximately 2×1.5×0.9 cm to 3×2×1.5 cm may be dissected from the left ventricle. The tissue may be cannulated via a small (diameter ˜100 μm) native branch of the left descending coronary artery and perfused with cardioplegic solution. Unperfused tissue may be carefully removed using a razor blade. […] A transmural ECG may be recorded using electrodes consisting of AgCl half cells attached to Tyrode's-filled tapered polyethylene electrodes which will be placed in the Tyrode's solution bathing the preparation, 1.0 to 1.5 cm from the epicardial and endocardial surfaces of the preparation, along the same vector as the transmembrane recordings. […] Transmembrane action potentials may be simultaneously recorded from epicardial, M, and endocardial sites using three to four separate intracellular floating microelectrodes (DC resistance: 10 to 20 MΩ) filled with 2.7 M KCl and connected to a high-input impedance amplifier. […]
# α1-adrenoreceptors = details: cited from earlier work
# α1-adrenoreceptor = details: infusion, patient with LQTS; cited from earlier work
smiles,measurement,setting,value
CCS(=O)(=O)N(C)[C@H]1c2cc(C#N)ccc2OC(C)(C)[C@@H]1O (racemic) [chromanol 293B],"TdP, spontaneous or in response to program stimulation",IKs,never produced TdP
"Cc1cccc(CCN2CCC(C(=O)c3ccc(NS(C)(=O)=O)cc3)CC2)n1 [E4031, Benzenesulfonamide E-4031]",APD,IKr,> 1 s
same,apex-to-base dispersion of repolarization,IKr,marked enhancement of the apex-to-base dispersion of repolarization with reversal of repolarization
COc1cc2nc(N3CCN(C(=O)c4ccco4)CC3)nc(N)c2cc1OC [prazosin],suppression of arrhythmias by pretreatment,WT rabbits,as effective as pretreatment with propranolol in suppressing the arrhythmias
CC(C)NCC(O)c1ccc(O)c(O)c1 (centres unmarked) [isoproterenol],duration of transient increase in TDR,LQT2,less than 2 minutes
CC(C)NC[C@@H](O)c1ccc(NS(C)(=O)=O)cc1 [d-sotalol],Action potential duration at 90% repolarization (APD90),[1],427 ms
same,QT interval,[1],467 ms
COc1ccc(OC)c(C(O)C(C)N)c1 (centres unmarked) [methoxamine],APD90 in tissues from the M region,α1-adrenoreceptors; canine wedge preparations,abbreviation of APD90
same,APD90 in Purkinje fibers,α1-adrenoreceptors; canine,dose- and rate-dependent prolongation of APD90
same,QTc,α1-adrenoreceptor,prolong the QTc
CC(C)NCC(O)COc1cccc2ccccc12 (centres unmarked) [propranolol],suppression of arrhythmias by pretreatment,WT rabbits,suppressing the arrhythmias
